Reference: PubChem BioAssay (NCI)
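96-well plates; 48 h exposure; 5 concentrations. Endpoints by linear interpolation between flanking doses. Not reached: highest tested concentration assigned. TGI denotes the concentration required for complete inhibition of growth.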

Experiments:
Test in all cases: DTP human tumour cell line panel, 48 h
786-0 renal = test system: 786-0 renal
A498 renal = test system: A498 renal
A549 NSCLC = test system: A549 NSCLC
ACHN renal = test system: ACHN renal
BT-549 breast = test system: BT-549 breast
CAKI-1 renal = test system: CAKI-1 renal
CCRF-CEM leukemia = test system: CCRF-CEM leukemia
COLO 205 colon = test system: COLO 205 colon
DU-145 prostate = test system: DU-145 prostate
EKVX NSCLC = test system: EKVX NSCLC
HCT-116 colon = test system: HCT-116 colon
HCT-15 colon = test system: HCT-15 colon
HL-60(TB) leukemia = test system: HL-60(TB) leukemia
HOP-62 NSCLC = test system: HOP-62 NSCLC
HOP-92 NSCLC = test system: HOP-92 NSCLC
HS 578T breast = test system: HS 578T breast
HT29 colon = test system: HT29 colon
IGROV1 ovarian = test system: IGROV1 ovarian
K-562 leukemia = test system: K-562 leukemia
KM12 colon = test system: KM12 colon
LOX IMVI melanoma = test system: LOX IMVI melanoma
M14 melanoma = test system: M14 melanoma
MALME-3M melanoma = test system: MALME-3M melanoma
MCF7 breast = test system: MCF7 breast
MDA-MB-231 breast = test system: MDA-MB-231 breast
MDA-MB-435 = test system: MDA-MB-435
MDA-N = test system: MDA-N
MOLT-4 leukemia = test system: MOLT-4 leukemia
NCI-H226 lung = test system: NCI-H226 lung
NCI-H23 lung = test system: NCI-H23 lung
NCI-H522 lung = test system: NCI-H522 lung
NCI/ADR-RES ovarian = test system: NCI/ADR-RES ovarian
OVCAR-3 ovarian = test system: OVCAR-3 ovarian
OVCAR-4 ovarian = test system: OVCAR-4 ovarian
OVCAR-5 ovarian = test system: OVCAR-5 ovarian
OVCAR-8 ovarian = test system: OVCAR-8 ovarian
PC-3 prostate = test system: PC-3 prostate
RPMI-8226 leukemia = test system: RPMI-8226 leukemia
RXF 393 renal = test system: RXF 393 renal
SF-268 CNS = test system: SF-268 CNS
SF-295 CNS = test system: SF-295 CNS
SF-539 CNS = test system: SF-539 CNS
SK-MEL-2 melanoma = test system: SK-MEL-2 melanoma
SK-MEL-28 melanoma = test system: SK-MEL-28 melanoma
SK-MEL-5 melanoma = test system: SK-MEL-5 melanoma
SK-OV-3 ovarian = test system: SK-OV-3 ovarian
SN12C renal = test system: SN12C renal
SNB-19 CNS = test system: SNB-19 CNS
SNB-75 CNS = test system: SNB-75 CNS
SR leukemia = test system: SR leukemia
SW-620 colon = test system: SW-620 colon
T-47D breast = test system: T-47D breast
U251 CNS = test system: U251 CNS
UACC-62 melanoma = test system: UACC-62 melanoma
UO-31 renal = test system: UO-31 renal

O=C(CSc1nc2ccc(I)cc2c(=O)n1Cc1ccccc1)Nc1ccccc1
TGI (786-0 renal): 23.9 µM
TGI (A498 renal): 46.4 µM
TGI (A549 NSCLC): > 100 µM
TGI (ACHN renal): > 100 µM
TGI (BT-549 breast): 54.6 µM
TGI (CAKI-1 renal): > 100 µM
TGI (CCRF-CEM leukemia): > 100 µM
TGI (COLO 205 colon): > 100 µM
TGI (DU-145 prostate): > 100 µM
TGI (EKVX NSCLC): 11.6 µM
TGI (HCT-116 colon): > 100 µM
TGI (HCT-15 colon): > 100 µM
TGI (HL-60(TB) leukemia): > 100 µM
TGI (HOP-62 NSCLC): 26.7 µM
TGI (HOP-92 NSCLC): 75 µM
TGI (HS 578T breast): 17 µM
TGI (HT29 colon): > 100 µM
TGI (IGROV1 ovarian): > 100 µM
TGI (K-562 leukemia): > 100 µM
TGI (KM12 colon): > 100 µM
TGI (LOX IMVI melanoma): > 100 µM
TGI (M14 melanoma): > 100 µM
TGI (MALME-3M melanoma): 43.8 µM
TGI (MCF7 breast): > 100 µM
TGI (MDA-MB-231 breast): > 100 µM
TGI (MDA-MB-435): > 100 µM
TGI (MDA-N): > 100 µM
TGI (MOLT-4 leukemia): > 100 µM
TGI (NCI-H226 lung): 44.5 µM
TGI (NCI-H23 lung): > 100 µM
TGI (NCI-H522 lung): 90.6 µM
TGI (NCI/ADR-RES ovarian): 93.2 µM
TGI (OVCAR-3 ovarian): 40.4 µM
TGI (OVCAR-4 ovarian): > 100 µM
TGI (OVCAR-5 ovarian): > 100 µM
TGI (OVCAR-8 ovarian): 30 µM
TGI (PC-3 prostate): 31.9 µM
TGI (RPMI-8226 leukemia): > 100 µM
TGI (RXF 393 renal): 34.1 µM
TGI (SF-268 CNS): 29.2 µM
TGI (SF-295 CNS): 66.7 µM
TGI (SF-539 CNS): 10.6 µM
TGI (SK-MEL-2 melanoma): 43.3 µM
TGI (SK-MEL-28 melanoma): > 100 µM
TGI (SK-MEL-5 melanoma): > 100 µM
TGI (SK-OV-3 ovarian): 46.4 µM
TGI (SN12C renal): > 100 µM
TGI (SNB-19 CNS): 62.7 µM
TGI (SNB-75 CNS): 12.2 µM
TGI (SR leukemia): 33.3 µM
TGI (SW-620 colon): > 100 µM
TGI (T-47D breast): > 100 µM
TGI (U251 CNS): 48.8 µM
TGI (UACC-62 melanoma): > 100 µM
TGI (UO-31 renal): 1.55 µM
